Patent publication US20090137664A1, “SAURURUS CERNUUS COMPOUNDS THAT INHIBIT CELLULAR RESPONSES TO HYPOXIA” (priority 2003, published 2009)

Experiments:
[1] = system: HIF-1; experiment: pTK-HRE3-luc reporter assay, 1,10-phenanthroline-induced HIF-1 activation in T47D cells; format: cell-based; conditions: Homo sapiens, read-out: inhibition of HIF-1 activation by 1,10-phenanthroline, 100 nM
Text: Iron chelators and transition metals (such as cobalt and nickel) can activate HIF-1 and have been used as chemical hypoxia mimetics. […] The expression of the HIF-1α subunit quantitatively determines HIF-1 biological activity (activation of transcription).

[2] = system: secreted VEGF protein; experiment: hypoxic induction of secreted VEGF protein in T47D cells (ELISA); format: cell-based, human
Procedure: The effects of compounds 1 and 2 on hypoxic induction of secreted VEGF protein are examined in T47D cells. Exponentially grown T47D cells are plated at the density of 30,000 cells/well into 96-well plates. Compound treatment and hypoxic exposure are the same as described. Following incubation, the concentration of secreted VEGF protein in the conditioned media is determined by ELISA (R & D Systems) and the data normalized by the number of viable cells. Results shown in FIG. 4 are averages from a representative experiment performed in quadruplicate, the bars represent standard error. An asterisk (*) indicates the level of significance (p<0.01) relative to the hypoxic control, two asterisks (**) (p<0.0001), and no asterisk indicates no statistical difference (ANOVA and Fisher's PLSD post hoc test).
As discussed earlier, one important HIF-1 target gene is VEGF, a key factor for tumor angiogenesis. Compounds that can inhibit both HIF-1 activation and the production of secreted VEGF protein represent potential efficacious chemotherapeutic agents that inhibit both tumor survival and hypoxia induced angiogenesis. The effects of four active examples (compounds 2, 3, 4, and 5) on hypoxic induction of secreted VEGF protein are examined in T47D cells and the data are presented in FIG. 9. Exponentially grown T47D cells are plated at the density of 356,000 cells/well into 12-well plates. Compound treatment and hypoxic exposure are the same as described. Following incubation, the concentration of secreted VEGF protein in the conditioned media is determined by ELISA (R & D Systems) and the data normalized by the number of viable cells. […] Hypoxic exposure leads to a 2-fold increase in the level of secreted VEGF protein. […] The level of significance (p<0.01) is determined by ANOVA and Fisher's PLSD post hoc test. The exemplary compounds 2, 3, and 4 all completely block hypoxic induction of secreted VEGF protein at concentrations as low as 10 nM. The exemplary compound 5 inhibits the hypoxic induction by 60% at 10 nM, and completely blocks at 100 nM. When tested at 100 nM, none of the compounds interfere with the ELISA assay using VEGF standard (no greater than 15% difference).

[3] = system: A549/ATCC; experiment: NCI in vitro cell line screen (SRB), Non-Small Cell Lung Cancer A549/ATCC; format: cell-based
Procedure: (§1) For exemplary purposes, an embodiment of the present invention was tested for activity with respect to certain cancer cell lines. The following Tables show results from in vitro 60-cell line antitumor testing from the US National Cancer Institute Developmental Therapeutics Program (NCI-DTP) on compound 2. The testing was in connection with the NCI's In Vitro Cell Line Screening Project (IVCLSP). Detailed information regarding the experiments and their interpretation is available from the NCI.

[4] = system: EKVX; experiment: NCI in vitro cell line screen (SRB), Non-Small Cell Lung Cancer EKVX; format: cell-based
Procedure: as §1

[5] = system: NCI-H322M; experiment: NCI in vitro cell line screen (SRB), Non-Small Cell Lung Cancer NCI-H322M; format: cell-based
Procedure: as §1

[6] = system: UACC-257; experiment: NCI in vitro cell line screen (SRB), Melanoma UACC-257; format: cell-based
Procedure: as §1

[7] = system: IGROV1; experiment: NCI in vitro cell line screen (SRB), Ovarian Cancer IGROV1; format: cell-based
Procedure: as §1

[8] = system: OVCAR-5; experiment: NCI in vitro cell line screen (SRB), Ovarian Cancer OVCAR-5; format: cell-based
Procedure: as §1

[9] = system: ACHN; experiment: NCI in vitro cell line screen (SRB), Renal Cancer ACHN; format: cell-based
Procedure: as §1

[10] = Homo sapiens, read-out: LC50 (the source's name)

COc1ccc([C@@H](O)[C@@H](C)Oc2ccc([C@H]3O[C@H](c4ccc(O[C@H](C)[C@H](O)c5ccc6c(c5)OCO6)c(OC)c4)[C@H](C)[C@H]3C)cc2OC)cc1OC [Compound 2, manassantin B]
inhibition at 0.1 µM [1]: 44% | inhibition of VEGF protein levels relative to the hypoxia-induced positive control ([2]; 12-well, p<0.01): significantly inhibit | reduction of secreted VEGF protein induced by hypoxia ([2]; 96-well, 1 at 100 nM, 2 at 10 nM, PD98059 at 100 μM): statistically significant reduction | relative potency in reducing the level of secreted VEGF protein ([2]; hypoxia): ten times more potent than 1 | TGI [3]: >1.00E−4 Molar | GI50 ([3]; Homo sapiens): 6.76 µM | LC50 (concentration giving 50% net cell kill) ([3]; Homo sapiens): > 100 µM | Mean Optical Densities ([3]; Log10 Concentration −4.0 Molar): 0.691 | Percent Growth ([3]; Log10 Concentration −4.0 Molar): 30% | Mean Optical Densities ([3]; Log10 Concentration −5.0 Molar): 0.849 | Percent Growth ([3]; Log10 Concentration −5.0 Molar): 45% | Mean Optical Densities ([3]; Log10 Concentration −6.0 Molar): 1.200 | Percent Growth ([3]; Log10 Concentration −6.0 Molar): 77% | Mean Optical Densities ([3]; Log10 Concentration −7.0 Molar): 1.242 | Percent Growth ([3]; Log10 Concentration −7.0 Molar): 80% | Mean Optical Densities ([3]; Log10 Concentration −8.0 Molar): 1.288 | Percent Growth ([3]; Log10 Concentration −8.0 Molar): 85% | TGI [4]: 8.25E−5 Molar | GI50 ([4]; Homo sapiens): 2.51 µM | CC50 [4, 10]: > 100 µM | Mean Optical Densities ([4]; Log10 Concentration −4.0 Molar): 0.970 | Percent Growth ([4]; Log10 Concentration −4.0 Molar): −2% | Mean Optical Densities ([4]; Log10 Concentration −5.0 Molar): 1.180 | Percent Growth ([4]; Log10 Concentration −5.0 Molar): 25% | Mean Optical Densities ([4]; Log10 Concentration −6.0 Molar): 1.479 | Percent Growth ([4]; Log10 Concentration −6.0 Molar): 66% | Mean Optical Densities ([4]; Log10 Concentration −7.0 Molar): 1.478 | Percent Growth ([4]; Log10 Concentration −7.0 Molar): 66% | Mean Optical Densities ([4]; Log10 Concentration −8.0 Molar): 1.447 | Percent Growth ([4]; Log10 Concentration −8.0 Molar): 62% | TGI [5]: >1.00E−4 Molar | GI50 ([5]; Homo sapiens): 19.7 µM | LC50 ([5]; Homo sapiens): > 100 µM | Mean Optical Densities ([5]; Log10 Concentration −4.0 Molar): 1.146 | Percent Growth ([5]; Log10 Concentration −4.0 Molar): 28% | Mean Optical Densities ([5]; Log10 Concentration −5.0 Molar): 1.266 | Percent Growth ([5]; Log10 Concentration −5.0 Molar): 59% | Mean Optical Densities ([5]; Log10 Concentration −6.0 Molar): 1.380 | Percent Growth ([5]; Log10 Concentration −6.0 Molar): 89% | Mean Optical Densities ([5]; Log10 Concentration −7.0 Molar): 1.370 | Percent Growth ([5]; Log10 Concentration −7.0 Molar): 86% | Mean Optical Densities ([5]; Log10 Concentration −8.0 Molar): 1.315 | Percent Growth ([5]; Log10 Concentration −8.0 Molar): 72% | TGI [6]: >1.00E−4 Molar | GI50 ([6]; Homo sapiens): 1.09 µM | CC50 [6, 10]: > 100 µM | Mean Optical Densities ([6]; Log10 Concentration −4.0 Molar): 1.165 | Percent Growth ([6]; Log10 Concentration −4.0 Molar): 12% | Mean Optical Densities ([6]; Log10 Concentration −5.0 Molar): 1.270 | Percent Growth ([6]; Log10 Concentration −5.0 Molar): 23% | Mean Optical Densities ([6]; Log10 Concentration −6.0 Molar): 1.558 | Percent Growth ([6]; Log10 Concentration −6.0 Molar): 51% | Mean Optical Densities ([6]; Log10 Concentration −7.0 Molar): 1.565 | Percent Growth ([6]; Log10 Concentration −7.0 Molar): 52% | Mean Optical Densities ([6]; Log10 Concentration −8.0 Molar): 1.673 | Percent Growth ([6]; Log10 Concentration −8.0 Molar): 62% | TGI [7]: >1.00E−4 Molar | GI50 ([7]; Homo sapiens, IGROV-1): 14 µM | CC50 ([7]; Homo sapiens, IGROV-1, read-out: LC50 (the source's name)): > 100 µM | Mean Optical Densities ([7]; Log10 Concentration −4.0 Molar): 0.336 | Percent Growth ([7]; Log10 Concentration −4.0 Molar): 13% | Mean Optical Densities ([7]; Log10 Concentration −5.0 Molar): 0.500 | Percent Growth ([7]; Log10 Concentration −5.0 Molar): 56% | Mean Optical Densities ([7]; Log10 Concentration −6.0 Molar): 0.674 | Percent Growth ([7]; Log10 Concentration −6.0 Molar): 102% | Mean Optical Densities ([7]; Log10 Concentration −7.0 Molar): 0.674 | Percent Growth ([7]; Log10 Concentration −7.0 Molar): 102% | Mean Optical Densities ([7]; Log10 Concentration −8.0 Molar): 0.721 | Percent Growth ([7]; Log10 Concentration −8.0 Molar): 114% | TGI [8]: >1.00E−4 Molar | CC50 [8, 10]: > 100 µM | Mean Optical Densities ([8]; Log10 Concentration −4.0 Molar): 0.713 | Percent Growth ([8]; Log10 Concentration −4.0 Molar): 11% | Mean Optical Densities ([8]; Log10 Concentration −5.0 Molar): 0.752 | Percent Growth ([8]; Log10 Concentration −5.0 Molar): 26% | Mean Optical Densities ([8]; Log10 Concentration −6.0 Molar): 0.862 | Percent Growth ([8]; Log10 Concentration −6.0 Molar): 68% | Mean Optical Densities ([8]; Log10 Concentration −7.0 Molar): 0.853 | Percent Growth ([8]; Log10 Concentration −7.0 Molar): 65% | Mean Optical Densities ([8]; Log10 Concentration −8.0 Molar): 0.696 | Percent Growth ([8]; Log10 Concentration −8.0 Molar): 4% | TGI [9]: 5.02E−5 Molar | GI50 ([9]; Homo sapiens): 1.82 µM | CC50 [9, 10]: > 100 µM | Mean Optical Densities ([9]; Log10 Concentration −4.0 Molar): 0.297 | Percent Growth ([9]; Log10 Concentration −4.0 Molar): −5% | Mean Optical Densities ([9]; Log10 Concentration −5.0 Molar): 0.351 | Percent Growth ([9]; Log10 Concentration −5.0 Molar): 11% | Mean Optical Densities ([9]; Log10 Concentration −6.0 Molar): 0.554 | Percent Growth ([9]; Log10 Concentration −6.0 Molar): 64% | Mean Optical Densities ([9]; Log10 Concentration −7.0 Molar): 0.644 | Percent Growth ([9]; Log10 Concentration −7.0 Molar): 88% | Mean Optical Densities ([9]; Log10 Concentration −8.0 Molar): 0.590 | Percent Growth ([9]; Log10 Concentration −8.0 Molar): 73%
